≈ marks a conversion by molar mass, not a printed value.

In general, kinetic solubility refers to solubility judged after dilution from a stock solution rather than from solid.

The conditions of the data set: buffer; pH 7.4; 200.0 µM.
Consider `CCc1nc(Nc2cccc(O)c2)c2oc3ccccc3c2n1.Cl`, for which the kinetic solubility is 0.5 µg/mL.
For the molecule `CN(C)c1nc(C(=O)O)nc(N2CCOCC2)n1`, the solubility (kinetic) amounted to 36.2 µg/mL (≈ 143 µM).
As for `Cc1cccc(N2CC(C(=O)Nc3ccc(N4CCOCC4)cc3)CC2=O)c1C` (stereo not given), the figure is over 59 µg/mL; as for `O=C(NCCNS(=O)(=O)c1ccccc1)c1ccc([N+](=O)[O-])cc1`, 51.1 µg/mL (≈ 146 µM).
As for `Cn1cc(C(O)CN2CCCCC2)c2ccccc21` (stereo not given), the figure is 38.1 µg/mL (≈ 147 µM); as for `CN(CCc1cnn(C)c1)Cc1cn(C)nc1-c1ccccc1F`, over 49.1 µg/mL.
As for `CCC(CC)C(=O)c1c[nH]c(C(=O)NCCOC)c1`, the figure is over 40 µg/mL; as for `O=C(CS(=O)(=O)c1ccc(F)cc1)N1CCOCC1`, over 43.1 µg/mL; as for `Cc1ccc(C(=O)OCc2nc3ccsc3c(=O)[nH]2)o1`, over 43.5 µg/mL.
As to `S=C(NCc1ccco1)Nc1ccc(Oc2ccc(Cl)cc2)cc1`, the kinetic solubility is under 0.4 µg/mL.
Consider `COc1cccc(C2(O)C(=O)Nc3ccccc32)c1` (stereo not given), for which the solubility (kinetic) is over 38.3 µg/mL.
As for `CCn1c(=O)c(C(=O)NCc2ccccc2OC)c(O)c2ccccc21`, the figure is 0.7 µg/mL (≈ 1.99 µM); as for `COc1ccccc1/C=C/C(=O)N1CCN(S(=O)(=O)c2cccs2)CC1`, 23.7 µg/mL (≈ 60.4 µM); as for `CCC(C(=O)NC1CCCCCC1)c1ccccc1` (stereo not given), 33.4 µg/mL (≈ 129 µM).
As for `O=C1Nc2ccccc2C1Cc1ccc(OC(F)(F)F)cc1` (stereo not given), the figure is 37.3 µg/mL (≈ 121 µM); as for `O=S(=O)(c1ccc(Br)cc1)N1CCCC1`, 41.5 µg/mL (≈ 143 µM).
For the molecule `N#Cc1ccc(S(=O)(=O)Nc2ccccc2N2CCOCC2)cc1`, the solubility (kinetic) was over 51.5 µg/mL.
As for `Cn1cccc1/C=C(/C#N)c1ccc(F)cc1`, the figure is 2.9 µg/mL (≈ 12.8 µM).
As for `COc1ccccc1Nc1nc(C)cc(C)n1`, the figure is 22.1 µg/mL (≈ 96.4 µM); as for `O=C1CCCc2ccccc2N1Cc1ccccc1`, 37.5 µg/mL (≈ 149 µM).
The molecule `Cc1ccc(NS(=O)(=O)c2ccc(C(=O)NCc3ccccn3)cc2)cc1` came in with a kinetic solubility of 53.8 µg/mL (≈ 141 µM).
`CCCCCOc1ccc(C(=O)CCN2CCOCC2)cc1.Cl` yielded a solubility (kinetic) of 34.9 µg/mL.
As for `Cc1cc(NC(=O)COc2ccc3ccccc3c2Br)no1`, the figure is 14.4 µg/mL (≈ 39.9 µM); as for `CC(OC(=O)Cn1cc(C(F)(F)F)ccc1=O)C(=O)N(C)c1ccccc1` (stereo not given), 57.2 µg/mL (≈ 150 µM).
As for `OC(CNCCc1c[nH]c2ccccc12)C(F)(F)F` (stereo not given), the figure is over 40.8 µg/mL; as for `CC(=O)c1ccc(-n2ccc(=O)cc2)cc1`, over 32 µg/mL; as for `CC(C)(C)c1ccc(CSc2nc(N)cc(=O)[nH]2)cc1`, 6.4 µg/mL (≈ 22.1 µM).
For `COC(=O)Nc1nc2ccc(C(=O)c3cccs3)cc2[nH]1`, the kinetic solubility is 0.3 µg/mL (≈ 0.996 µM).
As for `O=C(NC(=S)Nc1cccc2ncccc12)c1ccco1`, the figure is 13.3 µg/mL (≈ 44.7 µM); as for `O=S(=O)(c1ccc2c(c1)CCC2)N1CCNCC1`, over 40 µg/mL.
As for `O=C(COC(=O)c1cccc(F)c1)NC1CC1`, the figure is over 35.6 µg/mL; as for `Cc1ccc(Cl)cc1NC(=O)C1CC1c1ccccc1` (stereo not given), under 0.6 µg/mL.
`CC1=CC(C)(C)N=C(Nc2nc(C)c3cc(C)cc(C)c3n2)N1` registered a kinetic solubility of over 46.4 µg/mL.
As for `CC(C)CCNC(=O)C1(c2cccs2)CCOCC1`, the figure is over 42.2 µg/mL; as for `O=[N+]([O-])c1ccc(NCCCN2CCOCC2)c2ncccc12`, 2.5 µg/mL (≈ 7.9 µM); as for `CCC(C)NC(=O)c1cc2cc3ccc(OC)cc3nc2o1` (stereo not given), 30.4 µg/mL (≈ 102 µM).
As for `O=C1Nc2ccccc2C1=Nc1cccc(Cl)c1`, the figure is 28.2 µg/mL (≈ 110 µM); as for `COc1ccccc1NC(=O)N1CCN(c2ccnc3cc(Cl)ccc23)CC1`, 18.5 µg/mL (≈ 46.6 µM).
For the molecule `COc1ccc(C(=O)NCC(=O)OCC(=O)N2CCc3ccccc32)cc1`, the solubility (kinetic) was found to be 23 µg/mL (≈ 62.4 µM).
`C=CCn1c(SCC(N)=O)nnc1-c1cnccn1` registered a kinetic solubility of over 41.4 µg/mL.
As for `c1ccc2c(Cn3ccnc3)cccc2c1`, the figure is 30.2 µg/mL (≈ 145 µM); as for `NC(=O)CCC(NC(=S)Nc1ccccc1)C(=O)O` (stereo not given), 39.3 µg/mL (≈ 140 µM); as for `CCOC(=O)c1cc(-c2csc(-c3ccc(C(C)(C)C)cc3)n2)on1`, 0.4 µg/mL (≈ 1.12 µM).
In turn, `O=S(=O)(Nc1ccc(Cl)cc1)c1ccc2c(c1)CCO2` gave a kinetic solubility of over 46.5 µg/mL.
As for `COc1ccc(Cc2nnc(-c3ccccc3)o2)cc1`, the figure is over 39.9 µg/mL.
As for `O=C1CC(Cc2ccc(Cl)cc2)C(=O)N1c1cc(Cl)ccn1` (stereo not given), the figure is 29.4 µg/mL (≈ 87.7 µM).
In turn, `COCCN(Cc1ccccc1)C(=S)Nc1ccc(Cl)cc1` registered a kinetic solubility of 8.6 µg/mL (≈ 25.7 µM).
As for `O=C(Nc1cccc([N+](=O)[O-])c1)N1CCCCCC1`, the figure is 37.5 µg/mL (≈ 142 µM); as for `COc1ccc(NC(=O)COC(=O)c2ccc3ccccc3n2)cc1OC`, 6.7 µg/mL (≈ 18.3 µM); as for `C=C(C)COc1ccc(-c2ncncc2-c2ccc(Cl)cc2)c(O)c1`, under 0.4 µg/mL.
As for `COc1cc(OC)c(C(=O)OCC(=O)NC2CCCCCCC2)cc1OC`, the figure is over 56.9 µg/mL.
`Cc1ccc(C(=O)Oc2ccc(N3C(=O)CCC3=O)c(C)c2)cc1` displayed a kinetic solubility of under 0.7 µg/mL.
Regarding `O=[N+]([O-])c1ccc(CN2CCN(c3ccccc3)CC2)o1`, the kinetic solubility came to 14.5 µg/mL (≈ 50.5 µM).
For `O=C(NCC(c1ccco1)N1CCCC1)c1sc2cc(F)ccc2c1Cl` (stereo not given), the kinetic solubility was found to be 7.5 µg/mL (≈ 19.1 µM).
Consider `O=C(COc1ccc(Cl)cc1Br)NC(=O)NC1CCCC1`, for which the kinetic solubility stood at 6.4 µg/mL (≈ 17 µM).
On to `Cc1ccc(C(=O)NCCCNC(=O)COc2ccc(Cl)cc2)cn1`, for which the solubility (kinetic) came to 49.7 µg/mL (≈ 137 µM).
As for `O=C(NC1CCCCCC1)C(Cc1ccccc1)n1cccc1` (stereo not given), the figure is 10.6 µg/mL (≈ 34.1 µM); as for `CCCC(=O)c1cc2c(cc1NC(=O)c1ccccc1F)OCCO2`, under 0.7 µg/mL.
`COc1cccc(C(=O)Nc2ccc3ccccc3c2)c1` yielded a kinetic solubility of 1.6 µg/mL (≈ 5.77 µM).
As for `COc1ccc2nc3c(nc2c1)CCCC3`, the figure is over 32.1 µg/mL; as for `CC(=O)NCCc1nc2ccccc2n1Cc1cccc(C)c1`, over 46.1 µg/mL.
As for `COC(=O)c1ccc(-c2ncc[nH]2)cc1`, the figure is over 30.3 µg/mL.
As for `S=C(NC1CC1)NC1CCCc2ccccc21` (stereo not given), the figure is over 37 µg/mL; as for `COc1ccc2[nH]c(=O)c(CNc3ccc(C)cc3C)cc2c1`, 41.5 µg/mL (≈ 135 µM).
As for `O=C1CNC(=S)N1Cc1cccc(Cl)c1`, the kinetic solubility was over 36.1 µg/mL.
As for `CCCCNS(=O)(=O)c1ccc2nc(SCC(N)=O)[nH]c2c1`, the figure is over 51.4 µg/mL; as for `N#CC1(NC(=O)CN2C(=O)NC(Cc3c[nH]c4ccccc34)C2=O)CCCCC1` (stereo not given), over 59 µg/mL.
Regarding `CC(=O)O.NCC(c1ccco1)c1c[nH]c2ccccc12` (stereo not given), the kinetic solubility came to 21.5 µg/mL.
As for `CC1CCc2c(sc(NC(=O)c3cccs3)c2C(=O)O)C1` (stereo not given), the figure is 47.4 µg/mL (≈ 147 µM).
As for `Fc1ccc(-c2c[nH]c(=S)n2Cc2ccccc2)cc1`, the figure is 1.4 µg/mL (≈ 4.92 µM); as for `CC1=CC(C)(C)N2C(=O)C(=Nc3ccc(O)cc3)c3cccc1c32`, 9.4 µg/mL (≈ 29.5 µM); as for `CC(C)NC(=O)CN1CCN(C(=O)CCl)CC1.Cl`, over 44.7 µg/mL.
`O=C(O)c1ccc(CNC(=O)c2ccc3c(c2)C(=O)N(Cc2cccnc2)C3=O)cc1` had a kinetic solubility of over 62.3 µg/mL.
Take `CSc1ncc(C(=O)Nc2cccc(Cl)c2C)c(C)n1`: the kinetic solubility stood at 18.8 µg/mL (≈ 61.1 µM).
With `O=C(COC(=O)/C=C/c1ccccc1Cl)Nc1cccnc1Cl`, the solubility (kinetic) came to 2.9 µg/mL (≈ 8.26 µM).
Molecule `Cc1cc(NCc2cccnc2)nc(N)n1` came in with a solubility (kinetic) of over 32.3 µg/mL.
As for `COc1ccc(-c2cncnc2-c2ccc(OC)cc2O)cc1`, the figure is 38.6 µg/mL (≈ 125 µM).
Take `CCCn1c(Oc2ccccc2)nc2c1c(=O)n(C)c(=O)n2C`: the kinetic solubility was 45 µg/mL (≈ 143 µM).
In the case of `COC(=O)CC(NC(=O)C1CC1)c1ccc2c(c1)OCO2` (stereo not given), the solubility (kinetic) was over 43.7 µg/mL.
The molecule `CCC(C)NC(=S)Nc1ccc(F)cc1` (stereo not given) returned a kinetic solubility of over 33.9 µg/mL.
For `CC(=O)c1cccc(NC(=O)NCc2ccc3c(c2)OCO3)c1`, the kinetic solubility came out at 9.2 µg/mL (≈ 29.5 µM).
As for `COc1cc(NC(=O)C(c2ccccc2)c2ccccc2)c(C(=O)O)cc1OC`, the figure is over 58.7 µg/mL; as for `Cc1ccc(NS(=O)(=O)c2c(C)[nH]c(=O)[nH]c2=O)cc1F`, over 47 µg/mL.
Take `CC(C)C(NS(=O)(=O)c1ccccc1)C(=O)NC1CCCC1` (stereo not given): the solubility (kinetic) is over 48.7 µg/mL.
As for `CC(NC(=O)c1ccccc1C(=O)O)c1ccc(-n2ccnc2)cc1` (stereo not given), the figure is over 50.3 µg/mL; as for `O=[N+]([O-])c1ccc(COc2cccnc2)cc1`, over 34.5 µg/mL; as for `COc1cccc(NC(=O)Nc2ccc3nc(C)c(C)nc3c2)c1`, 0.9 µg/mL (≈ 2.79 µM).
Take `CC(C)(C)c1ccc(/C=C(\C#N)C(=O)NCCN2CCOCC2)cc1`: the kinetic solubility turned out to be 30.9 µg/mL (≈ 90.5 µM).
For `COc1ccccc1/C=C/C(=O)OCC(=O)NC1CCS(=O)(=O)C1` (stereo not given), the solubility (kinetic) is over 53 µg/mL.
Turning to `O=C(NCCC(=O)N1CCN(c2ccccn2)CC1)c1ccc(Cl)cc1`, the kinetic solubility is over 55.9 µg/mL.
As for `CC(C)(C)CC(=O)O/N=C(\N)c1ccncc1`, the figure is over 35.3 µg/mL; as for `COn1c(-c2ccccc2)c(C=O)c2ccccc21`, 2.4 µg/mL (≈ 9.55 µM); as for `COc1ccc(CC(=O)NCCc2cnc[nH]2)cc1`, over 38.9 µg/mL.
As for `Cc1nc(C)c(C(=O)OCC(=O)Nc2cccc(C)c2C)s1`, the figure is 39.7 µg/mL (≈ 125 µM); as for `Cc1cccc(NC(=O)NCc2cccnc2)c1C`, 35.6 µg/mL (≈ 139 µM).
The molecule `O=C(c1cc(F)c(F)cc1Cl)N1CCN(c2ncccn2)CC1` registered a kinetic solubility of 49.3 µg/mL (≈ 146 µM).
As for `Cn1cc(/C=C/C(=O)c2ccccc2)c2ccccc21`, the figure is 0.7 µg/mL (≈ 2.68 µM).
As for `O=C(N/N=C/c1ccccc1)C(O)c1ccccc1` (stereo not given), the figure is over 38.1 µg/mL; as for `CSc1nc(NS(=O)(=O)c2ccc(F)cc2F)nn1C`, over 48 µg/mL.
`COc1ccc(NC(=S)Nc2cccc3cnccc23)cc1` registered a kinetic solubility of 9.9 µg/mL (≈ 32 µM).
As to `CCN1/C(=C/C(=S)Nc2ccccc2)Sc2ccccc21`, the solubility (kinetic) was 6.7 µg/mL (≈ 21.4 µM).
Molecule `Cc1ccc2nc(-c3ccncc3)[nH]c2c1` displayed a kinetic solubility of 28.1 µg/mL (≈ 134 µM).
Turning to `O=C(CNC(=O)c1ccc2c(c1)OCO2)NCCOc1ccc(Cl)cc1`, the solubility (kinetic) was 13.7 µg/mL (≈ 36.4 µM).
With `N#Cc1ccncc1Sc1ccc(Cl)cc1`, the kinetic solubility turned out to be 25.3 µg/mL (≈ 103 µM).
As to `Cc1cccc(NC(=O)CN(C)C(=O)C2CCCC2)c1C`, the kinetic solubility is over 43.3 µg/mL.

Source of the values: PubChem BioAssay AID1996.
